Test results: patent US9724357B2, “Methods for preserving photoreceptor cell viability following retinal detachment” (Massachusetts Eye & Ear Infirmary, priority 2011, dated 2017)

Tests used:
Assay type in all cases: in vivo, Brown Norway rats
caspase 2 = test: Caspase 2 colorimetric activity assay in retinal lysates after retinal detachment; conditions: retinal lysates 24 hours after retinal detachment; 500 mg/kg/day i.p.; P<0.05
Text: (§1) In the examples described herein, all animal experiments adhered to the Association for Research in Vision and Ophthalmology Statement for the Use of Animals in Ophthalmic and Vision Research, and protocols were approved by the Animal Care Committee of the Massachusetts Eye and Ear Infirmary. Adult male Brown Norway rats (200 to 300 g) were purchased from Charles River Laboratories (Wilmington, Mass.). The rats were fed standard laboratory chow and allowed free access to water in an air-conditioned room with a 12 hour light/12 hour dark cycle.
(§2) Experimental retinal detachment was induced by subretinal injection of hyaluronic acid as previously described (Hisatomi T et al. (2001) AM. J. PATHOL. 158:1271-1278). Briefly, rats were anesthetized with 100 μl of a mixture of 5 parts Ketamine (100 mg/ml, Phoenix Pharmaceutical, Inc., St Joseph, Mo.), 4 parts PBS and 1 part Xylazine (100 mg/ml, Lloyd Laboratories, Inc., Shenandoah, Iowa). Body temperature was monitored and the animals were kept on a heating pad during the procedure as well as during the recovery period. […]
(§3) The caspase assays were performed on the retina of animals without retinal detachment (n=6) as well as animals with retinal detachment that received vehicle (n=8) or TUDCA (n=8). […] Optical density was assessed at 405 nm and normalized for protein concentration, initial optical density, and compared to a sample filled with buffer. […]

TNF-α = TNF-α ELISA on retinal lysates after retinal detachment; conditions: 24 hours after retinal detachment; 500 mg/kg/day i.p.; vs vehicle
Text: as §1
as §2, with “period. The pupils were dilated with drops of phenylephrine 5%/tropicamide 0.5%.” for “period.”
(§4) In order to measure inflammatory cytokines, eight eyes from each group (animals without retinal detachment as well as animals with retinal detachment that received vehicle or TUDCA) were analyzed using ELISA assays. […]

[1] = tested on: photoreceptor cells of detached retina (outer nuclear layer); test: TUNEL staining of photoreceptor death after experimental retinal detachment; conditions: administration started six hours after induction of retinal detachment; P=0.03; readout not given
Text: as §1
(§5) Experimental retinal detachment was induced by subretinal injection of hyaluronic acid as previously described (Hisatomi T et al. (2001) AM. J. PATHOL. 158:1271-1278). […] Body temperature was monitored and the animals were kept on a heating pad during the procedure as well as during the recovery period. […]
(§6) All values disclosed below were expressed as the mean±SD. Statistical differences between two groups were analyzed by Mann-Whitney U test. […]
Photoreceptor death was assessed by TUNEL staining, which detects DNA fragmentation in apoptotic or necrotic nuclei. […] Fluorescence was imaged using a DM RXA microscope (Leica, Solms Germany) and digitally captured. The number of TUNEL-positive cells per mm^2 at the central area of the detached retina was counted in a masked fashion. […]

caspase 8 = test: Caspase 8 colorimetric activity assay in retinal lysates after retinal detachment; conditions: retinal lysates 24 hours after retinal detachment; 500 mg/kg/day i.p.
Text: as §1, §2, §3

MCP-1 = MCP-1 ELISA on retinal lysates after retinal detachment; conditions: samples 24 and 72 hours after retinal detachment (FIG. 2B: one day); 500 mg/kg/day i.p.; vs vehicle
Text: as §1
as §2, with “period. The pupils were dilated with drops of phenylephrine 5%/tropicamide 0.5%.” for “period.”
as §4

caspase 9 = test: Caspase 9 colorimetric activity assay in retinal lysates after retinal detachment; conditions: retinal lysates 24 hours after retinal detachment; 500 mg/kg/day i.p.; P<0.05
Text: as §1, §2, §3

[2] = tested on: photoreceptor cells of detached retina (outer nuclear layer); test: Outer nuclear layer (ONL) thickness after experimental retinal detachment; conditions: 500 mg/kg/day i.p., mean±SD
Text: as §1, §5, §6
Photoreceptor loss was evaluated by measuring the thickness of the outer nuclear layer (ONL). ONL thickness was determined using National Institutes of Health ImageJ software. Thickness was measured based on the outer boundaries of the DAPI nuclear stain. […]

CD68+ cells = test: Macrophage infiltration (CD68+ immunostaining) in detached retina; conditions: one day after induction of retinal detachment; 500 mg/kg/day i.p.; vs vehicle
Text: as §1, §2
In order to assess macrophage infiltration in detached retinas, six eyes from each group (rats treated with vehicle or TUDCA) were analyzed. […] The number of CD68+ cells per […] was determined using the same method as described above for the quantification of TUNEL-positive cells.

caspase 11 = test: Caspase 11 western blot of vitreous and neural retina after retinal detachment; conditions: samples three days after retinal detachment, 500 mg/kg/day i.p.
CHOP = CHOP western blot (ER stress) of vitreous and neural retina after retinal detachment; conditions: three days after retinal detachment, systemic administration 500 mg/kg/day i.p.
Text: as §1
as §2, with “period. The pupils were dilated with drops of phenylephrine 5%/tropicamide 0.5%. A partial retinal detachment was induced with a transscleral, subretinal injection of approximately 50 μl of 1% sodium hyaluronate (Provisc, Alcon Laboratories Inc., Fort Worth, Tex.).” for “period.”

caspase 3 = test: Caspase 3 colorimetric activity assay in retinal lysates after retinal detachment; conditions: retinal lysates 24 hours after retinal detachment; 500 mg/kg/day i.p.; P<0.05
Text: as §1, §2, §3

protein carbonyl content = test: Protein carbonyl content ELISA (oxidative stress) in retina after retinal detachment; conditions: one day (24 hours) after retinal detachment; 500 mg/kg/day i.p.; vs vehicle
Text: as §1, §2
In order to assess the effect of TUDCA treatment on oxidative stress, the protein carbonyl content in the retina was determined Eight eyes from each group (animals without retinal detachment as well as animals with retinal detachment that received vehicle or TUDCA) were analyzed using ELISA assays. […]

C[C@H](CCC(=O)NCCS(=O)(=O)O)[C@H]1CC[C@H]2[C@@H]3[C@@H](O)C[C@@H]4C[C@H](O)CC[C@]4(C)[C@H]3CC[C@]12C [TUDCA, tauroursodeoxycholic acid]
effect on retinal detachment-induced activity of caspase 2 (caspase 2): significantly decreased | effect on levels of TNF-α (TNF-α): did not affect | neuroprotection with delayed treatment (FIG. 1D) [1]: showed efficient neuroprotection | effect on activity of caspase 8 (caspase 8): did not alter | effect on levels of MCP-1 (MCP-1): did not affect | effect on retinal detachment-induced activity of caspase 9 (caspase 9): significantly decreased | ONL thickness ratio (normalized, detached/attached retina) ([2]; five days after detachment, vehicle 0.57±0.04, P=0.002): 0.79±0.03 | ONL thickness ratio (normalized, detached/attached retina) ([2]; three days of retinal detachment, vehicle 0.65±0.03, P=0.0016): 0.84±0.03 | effect on macrophage infiltration (CD68+ cells) (CD68+ cells): did not affect macrophage infiltration | effect on activity of caspase 11 (caspase 11): did not alter | effect on CHOP expression (CHOP): did not significantly alter CHOP expression | effect on retinal detachment-induced activity of caspase 3 (caspase 3): significantly decreased | effect on protein carbonyl content (protein carbonyl content): prevented an increase in protein carbonyl content
